Experimental data from patent publication US4163801A, “Treatment of animals with 2,6-bis(2-hydroxybenzyl)phenols to eradicate trematodes” (ICI Australia Limited, priority 1976, dated 1979).

Key:
[1] = tested on: sheep liver fluke (Fasciola hepatica); experiment: Flukicidal activity in sheep infected with sheep liver fluke: faecal egg count and post mortem adult fluke count after single dose (Table II); type: in vivo; conditions: for Post Mortem Results: No of adult fluke: sheep liver; for Faecal Egg Count: sheep
Description: Compositions suitable for use as experimental aqueous oral drenches were prepared in the following general manner. A mixture of the required amount of active ingredient was mixed with 40 ml of an aqueous 0.25% w/w solution of "Lubrol E" ("Lubrol E" is a Registered Trade Mark for an octylphenol ethoxylate). The mixture was ball-milled for 30 minutes and the resultant suspension was used as an aqueous drench.
Compositions suitable for use as experimental injectable solutions were prepared by dissolving the chemical in propylene glycol and adjusting the concentration to 10% w/v active ingredient.
Compositions prepared by the methods of Examples 21 and 22 were used as a single dose to test sheep infected with sheep liver fluke (Fasciola hepatica). The number of liver fluke eggs in the faeces was measured at the time of treatment and at selected intervals up to 14 days after treatment. The sheep were killed on day 14 and the number of adult fluke in the liver counted. The amount and structure of active ingredient in each composition and the results of treatment of a sheep with that composition are given in the Table II below. The compositions were administered either by oral drench (oral) or by sub-cutaneous injection (s/c).

[2] = tested on: immature fluke; experiment: Effectiveness against immature fluke (Table II footnotes); type: in vivo, Fasciola hepatica; conditions: oral route

Oc1c(I)cc(F)cc1Cc1cc(Cl)cc(Cc2cc(F)cc(I)c2O)c1O [Compound 24]
Post Mortem Results: No of adult fluke ([1]; 12.5 mg/kg oral, killed day 14): 0 | Faecal Egg Count ([1]; 12.5 mg/kg oral, day 7): 20 Eggs per g faeces | Faecal Egg Count ([1]; 12.5 mg/kg oral, day 14): 0 Eggs per g faeces

Oc1c(Br)cc(F)cc1Cc1cc(Br)cc(Cc2cc(F)cc(Br)c2O)c1O [Compound 25]
Post Mortem Results: No of adult fluke ([1]; 12.5 mg/kg oral, killed day 14): 0 | Faecal Egg Count ([1]; 12.5 mg/kg oral, day 7): 0 Eggs per g faeces | Faecal Egg Count ([1]; 12.5 mg/kg oral, day 14): 0 Eggs per g faeces

CC(c1cc(F)cc(Br)c1O)c1cc(Cl)cc(C(C)c2cc(F)cc(Br)c2O)c1O (stereo not drawn) [Compound 40, 2,6-Bis[1-(3-bromo-5-fluoro-2-hydroxyphenyl)ethyl]-4-chlorophenol]
Post Mortem Results: No of adult fluke ([1]; 12.5 mg/kg oral, killed day 14): 11 | Faecal Egg Count ([1]; 12.5 mg/kg oral, day 7): 0 Eggs per g faeces | Faecal Egg Count ([1]; 12.5 mg/kg oral, day 14): 0 Eggs per g faeces

Oc1c(Cl)cc(F)cc1Cc1cc(Cl)cc(Cc2cc(F)cc(Cl)c2O)c1O [Compound 17]
Post Mortem Results: No of adult fluke ([1]; 12.5 mg/kg oral, killed day 14): 2 | Faecal Egg Count ([1]; 12.5 mg/kg oral, day 7): 150 Eggs per g faeces | Faecal Egg Count ([1]; 12.5 mg/kg oral, day 14): 20 Eggs per g faeces | Faecal Egg Count ([1]; 12.5 mg/kg oral, day 18): 20 Eggs per g faeces

Oc1c(Br)cc(Br)cc1Cc1cc(F)cc(Cc2cc(Br)cc(Br)c2O)c1O [Compound 14]
Post Mortem Results: No of adult fluke ([1]; 4.0 mg/kg oral, killed day 14): 1 | Post Mortem Results: No of adult fluke ([1]; 12.5 mg/kg oral, killed day 14): 0 | Faecal Egg Count ([1]; 4.0 mg/kg oral, day 7): 0 Eggs per g faeces | Faecal Egg Count ([1]; 4.0 mg/kg oral, day 14): 0 Eggs per g faeces | Faecal Egg Count ([1]; 12.5 mg/kg oral, day 7): 60 Eggs per g faeces | Faecal Egg Count ([1]; 12.5 mg/kg oral, day 14): 0 Eggs per g faeces

CC(c1cc(F)cc(Br)c1O)c1cc(Cl)cc(Cc2cc(F)cc(Br)c2O)c1O (stereo not drawn) [Compound 39]
Post Mortem Results: No of adult fluke ([1]; 3.0 mg/kg oral, killed day 14): 0 | Post Mortem Results: No of adult fluke ([1]; 6.0 mg/kg oral, killed day 14): 0 | Faecal Egg Count ([1]; 3.0 mg/kg oral, day 7): 210 Eggs per g faeces | Faecal Egg Count ([1]; 3.0 mg/kg oral, day 14): 0 Eggs per g faeces | Faecal Egg Count ([1]; 6.0 mg/kg oral, day 7): 60 Eggs per g faeces | Faecal Egg Count ([1]; 6.0 mg/kg oral, day 14): 0 Eggs per g faeces

CC(c1cc(Cl)cc(Cl)c1O)c1cc(F)cc(Cc2cc(Cl)cc(Br)c2O)c1O (stereo not drawn) [Compound 30, 2-(3-Bromo-5chloro-2-hydroxybenzyl)-6-[1-(3,5-dichloro-2-hydroxyphenyl)ethyl]-4-fluorophenol]
Post Mortem Results: No of adult fluke ([1]; 12.5 mg/kg oral, killed day 14): 0 | Faecal Egg Count ([1]; 12.5 mg/kg oral, day 7): 0 Eggs per g faeces | Faecal Egg Count ([1]; 12.5 mg/kg oral, day 14): 0 Eggs per g faeces

CC(=O)Oc1c(Cc2cc(Cl)cc(Br)c2O)cc(F)cc1Cc1cc(Cl)cc(Br)c1O [Compound 31]
Post Mortem Results: No of adult fluke ([1]; 12.5 mg/kg oral, killed day 14): 0 | Faecal Egg Count ([1]; 12.5 mg/kg oral, day 7): 220 Eggs per g faeces | Faecal Egg Count ([1]; 12.5 mg/kg oral, day 14): 10 Eggs per g faeces

Oc1c(Br)cc(F)cc1Cc1cc(Cl)cc(Cc2cc(F)cc(Br)c2O)c1O [Compound 2, 2,6-bis(3-bromo-5-fluoro-2-hydroxybenzyl)-4-chlorophenol]
Post Mortem Results: No of adult fluke ([1]; 3.1 mg/kg oral, killed day 14): 0 | Post Mortem Results: No of adult fluke ([1]; 6.5 mg/kg oral, killed day 14): 0 | Post Mortem Results: No of adult fluke ([1]; 12.5 mg/kg oral, killed day 14): 0 | Post Mortem Results: No of adult fluke ([1]; 12.5 mg/kg s/c, killed day 14): 0 | Faecal Egg Count ([1]; 3.1 mg/kg oral, day 7): 20 Eggs per g faeces | Faecal Egg Count ([1]; 3.1 mg/kg oral, day 14): 0 Eggs per g faeces | Faecal Egg Count ([1]; 6.5 mg/kg oral, day 7): 40 Eggs per g faeces | Faecal Egg Count ([1]; 6.5 mg/kg oral, day 14): 0 Eggs per g faeces | Faecal Egg Count ([1]; 12.5 mg/kg oral, day 2): 130 Eggs per g faeces | Faecal Egg Count ([1]; 12.5 mg/kg oral, day 7): 0 Eggs per g faeces | Faecal Egg Count ([1]; 12.5 mg/kg oral, day 13): 0 Eggs per g faeces | Faecal Egg Count ([1]; 12.5 mg/kg s/c, day 3): 3800 Eggs per g faeces | Faecal Egg Count ([1]; 12.5 mg/kg s/c, day 7): 0 Eggs per g faeces | Faecal Egg Count ([1]; 12.5 mg/kg s/c, day 14): 0 Eggs per g faeces

Oc1c(Br)cc(Cl)cc1Cc1cc(Cl)cc(Cc2cc(Cl)cc(Br)c2O)c1O [Compound 12]
Post Mortem Results: No of adult fluke ([1]; 4.0 mg/kg oral, killed day 14): 0 | Post Mortem Results: No of adult fluke ([1]; 12.5 mg/kg oral, killed day 14): 0 | Faecal Egg Count ([1]; 4.0 mg/kg oral, day 7): 0 Eggs per g faeces | Faecal Egg Count ([1]; 4.0 mg/kg oral, day 14): 0 Eggs per g faeces | Faecal Egg Count ([1]; 12.5 mg/kg oral, day 7): 40 Eggs per g faeces | Faecal Egg Count ([1]; 12.5 mg/kg oral, day 14): 0 Eggs per g faeces

CC(c1cc(Cl)cc(Cl)c1O)c1cc(F)cc(Cc2cc(F)cc(Br)c2O)c1O (stereo not drawn) [Compound 46]
Post Mortem Results: No of adult fluke ([1]; 12.5 mg/kg oral, killed day 14): 0 | Faecal Egg Count ([1]; 12.5 mg/kg oral, day 7): 0 Eggs per g faeces | Faecal Egg Count ([1]; 12.5 mg/kg oral, day 14): 0 Eggs per g faeces

Oc1c(I)cc(Cl)cc1Cc1cc(F)cc(Cc2cc(Cl)cc(I)c2O)c1O [Compound 29]
Post Mortem Results: No of adult fluke ([1]; 6.3 mg/kg oral, killed day 14): 0 | Post Mortem Results: No of adult fluke ([1]; 12.5 mg/kg oral, killed day 14): 0 | Faecal Egg Count ([1]; 6.3 mg/kg oral, day 7): 0 Eggs per g faeces | Faecal Egg Count ([1]; 6.3 mg/kg oral, day 14): 0 Eggs per g faeces | Faecal Egg Count ([1]; 12.5 mg/kg oral, day 7): 10 Eggs per g faeces | Faecal Egg Count ([1]; 12.5 mg/kg oral, day 14): 0 Eggs per g faeces | effective against immature fluke ([2]; 10 mg/kg): 81%

Oc1c(Br)cc(Cl)cc1Cc1cc(F)cc(Cc2cc(Cl)cc(Br)c2O)c1O [Compound 4, 2,6-bis(3-bromo-5-chloro-2-hydroxybenzyl)-4-fluorophenol]
Post Mortem Results: No of adult fluke ([1]; 1.0 mg/kg oral, killed day 14): 0 | Post Mortem Results: No of adult fluke ([1]; 2.0 mg/kg s/c, killed day 14): 0 | Post Mortem Results: No of adult fluke ([1]; 3.1 mg/kg oral, killed day 14): 0 | Post Mortem Results: No of adult fluke ([1]; 6.3 mg/kg oral, killed day 14): 0 | Post Mortem Results: No of adult fluke ([1]; 12.5 mg/kg oral, Day 29): 0 | Faecal Egg Count ([1]; 2.0 mg/kg s/c, day 7): 20 Eggs per g faeces | Faecal Egg Count ([1]; 2.0 mg/kg s/c, day 14): 0 Eggs per g faeces | Faecal Egg Count ([1]; 3.1 mg/kg oral, day 2): 0 Eggs per g faeces | Faecal Egg Count ([1]; 3.1 mg/kg oral, day 7): 10 Eggs per g faeces | Faecal Egg Count ([1]; 3.1 mg/kg oral, day 14): 0 Eggs per g faeces | Faecal Egg Count ([1]; 6.3 mg/kg oral, day 2): 70 Eggs per g faeces | Faecal Egg Count ([1]; 6.3 mg/kg oral, day 7): 0 Eggs per g faeces | Faecal Egg Count ([1]; 12.5 mg/kg oral, day 2): 2520 Eggs per g faeces | Faecal Egg Count ([1]; 12.5 mg/kg oral, day 7): 200 Eggs per g faeces | Faecal Egg Count ([1]; 12.5 mg/kg oral, day 14): 0 Eggs per g faeces | effective against immature fluke ([2]; 5.0 mg/kg): 49% | effective against immature fluke ([2]; 7.5 mg/kg): 85% | effective against immature fluke ([2]; 10 mg/kg): 98%

O=[N+]([O-])c1cc(Cl)cc(Cc2cc(Cl)cc(Cc3cc(Cl)cc([N+](=O)[O-])c3O)c2O)c1O [Compound 9, 2,6-Bis(5-chloro-2-hydroxy-3-nitrobenzyl)-4-chlorophenol]
Post Mortem Results: No of adult fluke ([1]; 12.5 mg/kg s/c, killed day 14): 3 | Faecal Egg Count ([1]; 12.5 mg/kg s/c, day 7): 0 Eggs per g faeces | Faecal Egg Count ([1]; 12.5 mg/kg s/c, day 14): 10 Eggs per g faeces

Oc1c(I)cc(F)cc1Cc1cc(F)cc(Cc2cc(F)cc(I)c2O)c1O [Compound 38]
Post Mortem Results: No of adult fluke ([1]; 6.3 mg/kg oral, killed day 14): 0 | Faecal Egg Count ([1]; 4.0 mg/kg oral, day 7): 50 Eggs per g faeces | Faecal Egg Count ([1]; 4.0 mg/kg oral, day 14): 80 Eggs per g faeces | Faecal Egg Count ([1]; 6.3 mg/kg oral, day 7): 190 Eggs per g faeces | Faecal Egg Count ([1]; 6.3 mg/kg oral, day 14): 0 Eggs per g faeces

Oc1c(Br)cc(F)cc1Cc1cc(F)cc(Cc2cc(F)cc(Br)c2O)c1O [Compound 22]
Post Mortem Results: No of adult fluke ([1]; 6.3 mg/kg oral, killed day 14): 0 | Post Mortem Results: No of adult fluke ([1]; 12.5 mg/kg oral, killed day 14): 0 | Faecal Egg Count ([1]; 6.3 mg/kg oral, day 7): 0 Eggs per g faeces | Faecal Egg Count ([1]; 6.3 mg/kg oral, day 14): 0 Eggs per g faeces | Faecal Egg Count ([1]; 12.5 mg/kg oral, day 7): 1340 Eggs per g faeces | Faecal Egg Count ([1]; 12.5 mg/kg oral, day 14): 0 Eggs per g faeces

Oc1c(Br)cc(Br)cc1Cc1cc(Cl)cc(Cc2cc(Br)cc(Br)c2O)c1O [Compound 11]
Post Mortem Results: No of adult fluke ([1]; 12.5 mg/kg oral, killed day 14): 12 | Faecal Egg Count ([1]; 12.5 mg/kg oral, day 7): 130 Eggs per g faeces | Faecal Egg Count ([1]; 12.5 mg/kg oral, day 14): 40 Eggs per g faeces

Oc1c(Cl)cc(Cl)cc1Cc1cc(F)cc(Cc2cc(Cl)cc(Cl)c2O)c1O [Compound 18, 2,6-bis(3,5-dichloro-2-hydroxybenzyl)-4-fluorophenol]
Post Mortem Results: No of adult fluke ([1]; 12.5 mg/kg oral, killed day 14): 0 | Faecal Egg Count ([1]; 12.5 mg/kg oral, day 7): 0 Eggs per g faeces | Faecal Egg Count ([1]; 12.5 mg/kg oral, day 14): 0 Eggs per g faeces
